Laboratory results: patent publication US20030100757A1, “2-(4-aryl or heteroaryl-piperazin-1-ylmethyl)-1H-indole derivatives interacting with the dopamine D4 receptor” (Pfizer Inc., priority 2001, published 2003)

SMILES | melting point [°C]
Oc1ccc2[nH]c(CN3CCN(c4cccc(C(F)(F)F)c4)CC3)cc2c1 [Example 4, 2-[4-(3-Trifluoromethyl-phenyl)-piperazin-1-ylmethyl]-1H-indol-5-ol] | 188 to 190
FC(F)(F)c1cccc(N2CCN(Cc3cc4ccccc4[nH]3)CC2)c1 [Example 5, 2-[4-(3-Trifluoromethyl-phenyl)-piperazin-1-ylmethyl]-1 H-indole] | 192 to 194
O=C(c1cc2cc(F)ccc2[nH]1)N1CCN(c2ccccc2[N+](=O)[O-])CC1 [Example 7, (5-Fluoro-1H-indol-2-yl)-[4-(2-nitro-phenyl)-piperazin-1-yl]-methanone] | 184 to 188
O=C(c1cc2cc(F)ccc2[nH]1)N1CCN(c2cccc(C(F)(F)F)c2)CC1 [Example 8, (5-Fluoro-1H-indol-2-yl)-[4-(3-trifluoromethyl-phenyl)-piperazin-1-yl]-methanone] | 198
c1ccc2[nH]c(CN3CCN(c4nsc5ccccc45)CC3)cc2c1 [Example 9, 3-[4-(1H-Indol-2-ylmethyl)-piperazin-1-yl]-benzo[d]isothiazole] | 150 to 152
Fc1ccc2[nH]c(CN3CCN(c4cccc(C(F)(F)F)c4)CC3)cc2c1 [Example 10, 5-Fluoro-2-[4-(3-trifluoromethyl-phenyl)-piperazin-1-ylmethyl]-1H-indole] | 196 to 197
c1ccc2[nH]c(CN3CCN(c4cccc5ccccc45)CC3)cc2c1 [Example 11, 2-(4-Naphthalen-1-yl-piperazin-1-ylmethyl)-1H-indole] | 238 to 239
O=[N+]([O-])c1ccccc1N1CCN(Cc2cc3ccccc3[nH]2)CC1 [Example 12, 2-[4-(2-Nitro-phenyl)-piperazin-1-ylmethyl]-1H-indole] | 210 to 211

Second part, the compound after the results:

melting point [°C] | SMILES
236 | O=[N+]([O-])c1ccccc1N1CCN(Cc2cc3cc(F)ccc3[nH]2)CC1 [Example 13, 5-Fluoro-2-[4-(2-nitro-phenyl)-piperazin-1-ylmethyl]-1H-indole]
249 to 250 | Fc1ccc2[nH]c(CN3CCN(c4cccc5ccccc45)CC3)cc2c1 [Example 14, 5-Fluoro-2-(4-naphthalen-1-yl-piperazin-1-ylmethyl)-1H-indole]
199 | Fc1ccc2[nH]c(CN3CCN(c4ncccn4)CC3)cc2c1 [Example 17, 5-Fluoro-2-(4-pyrimidin-2-yl-piperazin-1-ylmethyl)-1H-indole]
214 to 218 | O=C(c1cc2cc(F)ccc2[nH]1)N1CCN(c2ccccn2)CC1 [Example 18, (5-Fluoro-1H-indol-2-yl)-(4-pyridin-2-yl-piperazin-1-yl)-methanone]
